Test results published in ChEMBL document CHEMBL1156695, “The novel primaquine derivatives of N-alkyl, cycloalkyl or aryl urea: synthesis, cytostatic and antiviral activity evaluations” (Eur J Med Chem, 2008).
Active and inactive are the calls of the source. No cut-off for these calls is given here.

Tests used:
[1] = test system: Vesicular stomatitis virus; experiment: Antiviral activity against vesicular stomatitis virus infected in HeLa cells assessed as reduction of virus-induced cytopathogenicity; format: functional, organism-based
[2] = Cytostatic activity against human Molt4/C8 cells after 72 hrs by MTT assay; format: functional, cell-based; conditions: MOLT-4, 72 h
[3] = test system: Human alphaherpesvirus 1; experiment: Antiviral activity against HSV1 infected in HEL cells assessed as reduction of virus-induced cytopathogenicity; format: functional, organism-based
[4] = Cytotoxicity against HEL cells assessed as reduction in cell growth; format: cell-based; conditions: human
[5] = test system: MIA PaCa-2; experiment: Cytostatic activity against human MiaPaCa2 cells after 72 hrs by MTT assay; format: functional, cell-based; conditions: MIA PaCa-2, 72 h
[6] = test system: NCI-H460; experiment: Cytostatic activity against human H460 cells after 72 hrs by MTT assay; format: functional, cell-based; conditions: NCI-H460, 72 h
[7] = test system: Vesicular stomatitis virus; experiment: Antiviral activity against vesicular stomatitis virus infected in HEL cells assessed as reduction of virus-induced cytopathogenicity; format: functional, organism-based
[8] = test system: Mammalian orthoreovirus 1; experiment: Antiviral activity against Reovirus 1 infected in african green monkey Vero cells assessed as reduction of virus-induced cytopathogenicity; format: functional, organism-based
[9] = test system: Coxsackievirus B4; experiment: Antiviral activity against Coxsackievirus B4 infected in HeLa cells assessed as reduction of virus-induced cytopathogenicity; format: functional, organism-based
[10] = test system: Human respirovirus 3; experiment: Antiviral activity against parainfluenza virus 3 infected in african green monkey Vero cells assessed as reduction of virus-induced cytopathogenicity; format: functional, organism-based
[11] = test system: Human betaherpesvirus 5; experiment: Antiviral activity against HCMV AD169 infected in HEL cells assessed as reduction of virus-induced cytopathogenicity after 3 days; format: functional, organism-based; conditions: Human betaherpesvirus 5, AD169, HEL, 72 h
[12] = test system: Human betaherpesvirus 5; experiment: Antiviral activity against HCMV Davis infected in HEL cells assessed as reduction of virus-induced cytopathogenicity after 3 days; format: functional, organism-based; conditions: Human betaherpesvirus 5, Davis, 72 h
[13] = test system: CCRF-CEM; experiment: Cytostatic activity against human CEM cells after 72 hrs by MTT assay; format: functional, cell-based
[14] = test system: MCF7; experiment: Cytostatic activity against human MCF7 cells after 72 hrs by MTT assay; format: functional, cell-based; conditions: MCF7, 72 h
[15] = Cytostatic activity against human WI38 cells after 72 hrs by MTT assay; format: cell-based; conditions: WI-38, 72 h
[16] = test system: HeLa; experiment: Cytostatic activity against human HeLa cells after 72 hrs by MTT assay; format: functional, cell-based
[17] = test system: Human alphaherpesvirus 2; experiment: Antiviral activity against HSV2 infected in HEL cells assessed as reduction of virus-induced cytopathogenicity; format: functional, organism-based
[18] = test system: Respiratory syncytial virus; experiment: Antiviral activity against respiratory syncytial virus infected in HeLa cells assessed as reduction of virus-induced cytopathogenicity; format: functional, organism-based
[19] = test system: SW-620; experiment: Cytostatic activity against human SW620 cells after 72 hrs by MTT assay; format: functional, cell-based; conditions: SW-620, 72 h
[20] = test system: Punta Toro virus; experiment: Antiviral activity against Punta Toro virus infected in african green monkey Vero cells assessed as reduction of virus-induced cytopathogenicity; format: functional, organism-based
[21] = Cytotoxicity against HEL cells assessed as change in cell morphology; format: cell-based; conditions: human
[22] = test system: Coxsackievirus B4; experiment: Antiviral activity against Coxsackievirus B4 infected in african green monkey Vero cells assessed as reduction of virus-induced cytopathogenicity; format: functional, organism-based
[23] = test system: L1210; experiment: Cytostatic activity against mouse L1210 cells after 72 hrs by MTT assay; format: functional, cell-based; conditions: L1210, 72 h
[24] = test system: Sindbis virus; experiment: Antiviral activity against Sindbis virus infected in african green monkey Vero cells assessed as reduction of virus-induced cytopathogenicity; format: functional, organism-based

COc1cc(NC(C)CCCNC(=O)n2nnc3ccccc32)c2ncccc2c1 (configuration not stated) [PRIMAQUINE BENZOTRIAZOLIDE]
Activity [1]: inactive | IC50 [2]: 74 µM | Activity [3]: inactive | CC50 [4]: 72 µM | IC50 [5]: 84 µM | IC50 [6]: > 100 µM | Activity [7]: inactive | Activity [8]: inactive | Activity [9]: inactive | Activity [10]: inactive | EC50 [11]: > 100 µM | EC50 [12]: > 30 µM | IC50 [13]: > 100 µM | IC50 [14]: > 100 µM | IC50 [15]: > 100 µM | IC50 [16]: 71 µM | Activity [17]: inactive | Activity [18]: inactive | IC50 [19]: > 100 µM | Activity [20]: inactive | MCC [21]: > 100 µM | Activity [22]: inactive | IC50 [23]: 125 µM | Activity [24]: inactive

COc1cc(NC(C)CCCNC(=O)N(C2CCCCC2)C2CCCCC2)c2ncccc2c1 (configuration not stated)
Activity [1]: inactive | IC50 [2]: 36 µM | Activity [3]: inactive | CC50 [4]: 27 µM | IC50 [5]: 17 µM | IC50 [6]: 21 µM | Activity [7]: inactive | Activity [8]: inactive | Activity [9]: inactive | Activity [10]: inactive | EC50 [11]: > 0.8 µM | EC50 [12]: > 0.8 µM | IC50 [13]: 13 µM | IC50 [14]: 9 µM | IC50 [15]: 18 µM | IC50 [16]: 23 µM | Activity [17]: inactive | Activity [18]: inactive | IC50 [19]: 15 µM | Activity [20]: inactive | MCC [21]: 4 µM | Activity [22]: inactive | IC50 [23]: 15 µM | Activity [24]: inactive

COc1cc(NC(C)CCCNC(=O)NCc2ccccc2)c2ncccc2c1 (configuration not stated)
Activity [1]: inactive | IC50 [2]: 21 µM | Activity [3]: inactive | CC50 [4]: 66 µM | IC50 [5]: 21 µM | IC50 [6]: 30 µM | Activity [7]: inactive | Activity [8]: inactive | Activity [9]: inactive | Activity [10]: inactive | EC50 [11]: > 20 µM | EC50 [12]: 7.6 µM | IC50 [13]: 18 µM | IC50 [14]: 25 µM | IC50 [15]: 35 µM | IC50 [16]: 15 µM | Activity [17]: inactive | Activity [18]: inactive | IC50 [19]: 9 µM | Activity [20]: inactive | MCC [21]: 100 µM | Activity [22]: inactive | IC50 [23]: 22 µM | Activity [24]: inactive

COc1cc(NC(C)CCCNC(=O)NC2CCCC2)c2ncccc2c1 (configuration not stated)
Activity [1]: inactive | IC50 [2]: 44 µM | Activity [3]: inactive | CC50 [4]: 56 µM | IC50 [5]: 19 µM | IC50 [6]: 25 µM | Activity [7]: inactive | Activity [8]: inactive | Activity [9]: inactive | Activity [10]: inactive | EC50 [11]: > 20 µM | EC50 [12]: 12 µM | IC50 [13]: 41 µM | IC50 [14]: 30 µM | IC50 [15]: 29 µM | IC50 [16]: 21 µM | Activity [17]: inactive | Activity [18]: inactive | IC50 [19]: 19 µM | Activity [20]: inactive | MCC [21]: 100 µM | Activity [22]: inactive | IC50 [23]: 41 µM | Activity [24]: inactive

CCN(CC)C(=O)NCCCC(C)Nc1cc(OC)cc2cccnc12 (configuration not stated)
Activity [1]: inactive | IC50 [2]: 155 µM | Activity [3]: inactive | CC50 [4]: > 100 µM | IC50 [5]: > 100 µM | IC50 [6]: > 100 µM | Activity [7]: inactive | Activity [8]: inactive | Activity [9]: inactive | Activity [10]: inactive | EC50 [11]: 49 µM | EC50 [12]: 26 µM | IC50 [13]: 142 µM | IC50 [14]: > 63 µM | IC50 [15]: > 100 µM | IC50 [16]: 58 µM | Activity [17]: inactive | Activity [18]: inactive | IC50 [19]: > 100 µM | Activity [20]: inactive | MCC [21]: > 100 µM | Activity [22]: inactive | IC50 [23]: 207 µM | Activity [24]: inactive

COc1cc(NC(C)CCCNC(=O)NC2CCCCC2)c2ncccc2c1 (configuration not stated)
Activity [1]: inactive | IC50 [2]: 50 µM | Activity [3]: inactive | CC50 [4]: 94 µM | IC50 [5]: 38 µM | IC50 [6]: 77 µM | Activity [7]: inactive | Activity [8]: inactive | Activity [9]: inactive | Activity [10]: inactive | EC50 [11]: 53 µM | EC50 [12]: 10.5 µM | IC50 [13]: 36 µM | IC50 [14]: 41 µM | IC50 [15]: > 100 µM | IC50 [16]: > 100 µM | Activity [17]: inactive | Activity [18]: inactive | IC50 [19]: 49 µM | Activity [20]: inactive | MCC [21]: 100 µM | Activity [22]: inactive | IC50 [23]: 23 µM | Activity [24]: inactive

COc1cc(NC(C)CCCNC(=O)NCC2CCCCC2)c2ncccc2c1 (configuration not stated)
Activity [1]: inactive | IC50 [2]: 53 µM | Activity [3]: inactive | CC50 [4]: 74 µM | IC50 [5]: 60 µM | IC50 [6]: > 100 µM | Activity [7]: inactive | Activity [8]: inactive | Activity [9]: inactive | Activity [10]: inactive | EC50 [11]: 15.3 µM | EC50 [12]: 7.6 µM | IC50 [13]: 22 µM | IC50 [14]: 61 µM | IC50 [15]: > 100 µM | IC50 [16]: > 100 µM | Activity [17]: inactive | Activity [18]: inactive | IC50 [19]: 61 µM | Activity [20]: inactive | MCC [21]: 100 µM | Activity [22]: inactive | IC50 [23]: 22 µM | Activity [24]: inactive

COc1cc(NC(C)CCCNC(=O)NCCc2ccccc2)c2ncccc2c1 (configuration not stated)
Activity [1]: inactive | IC50 [2]: 45 µM | Activity [3]: inactive | CC50 [4]: 56 µM | IC50 [5]: 30 µM | IC50 [6]: 54 µM | Activity [7]: inactive | Activity [8]: inactive | Activity [9]: inactive | Activity [10]: inactive | EC50 [11]: 12.6 µM | EC50 [12]: 2.9 µM | IC50 [13]: 34 µM | IC50 [14]: 27 µM | IC50 [15]: > 100 µM | IC50 [16]: > 100 µM | Activity [17]: inactive | Activity [18]: inactive | IC50 [19]: 32 µM | Activity [20]: inactive | MCC [21]: > 100 µM | Activity [22]: inactive | IC50 [23]: 24 µM | Activity [24]: inactive

Nc1ccn(C[C@@H](CO)OCP(=O)(O)O)c(=O)n1 [CIDOFOVIR]
MCC [21]: > 1270 µM

COc1cc(NC(C)CCCNC(=O)NC(c2ccccc2)c2ccccc2)c2ncccc2c1 (configuration not stated)
Activity [1]: inactive | IC50 [2]: ≥ 500 µM | Activity [3]: inactive | CC50 [4]: > 100 µM | IC50 [5]: 100 µM | IC50 [6]: > 100 µM | Activity [7]: inactive | Activity [8]: inactive | Activity [9]: inactive | Activity [10]: inactive | EC50 [11]: > 100 µM | EC50 [12]: > 100 µM | IC50 [13]: 142 µM | IC50 [14]: > 100 µM | IC50 [15]: > 100 µM | IC50 [16]: 100 µM | Activity [17]: inactive | Activity [18]: inactive | IC50 [19]: 58 µM | Activity [20]: inactive | MCC [21]: > 100 µM | Activity [22]: inactive | IC50 [23]: > 500 µM | Activity [24]: inactive

COc1cc(NC(C)CCCNC(=O)NCc2ccncc2)c2ncccc2c1 (configuration not stated)
Activity [1]: inactive | IC50 [2]: 24 µM | Activity [3]: inactive | CC50 [4]: 72 µM | IC50 [5]: 20 µM | IC50 [6]: 48 µM | Activity [7]: inactive | Activity [8]: inactive | Activity [9]: inactive | Activity [10]: inactive | EC50 [11]: 13.4 µM | EC50 [12]: 1.2 µM | IC50 [13]: 2.9 µM | IC50 [14]: 30 µM | IC50 [15]: 10 µM | IC50 [16]: 18 µM | Activity [17]: inactive | Activity [18]: inactive | IC50 [19]: 2 µM | Activity [20]: inactive | MCC [21]: 100 µM | Activity [22]: inactive | IC50 [23]: 3 µM | Activity [24]: inactive

Nc1nc(O)c2ncn(COC(CO)CO)c2n1 [GANCICLOVIR]
MCC [21]: > 1580 µM
